Results published in US6900223B2, “Dihydrodipyrazolopyridinone inhibitors of B7-1” (Wyeth, priority 2002, dated 2005).

Molecular target: T1, B7-1/CD28 binding (Homo sapiens, UniProt P33681)
T1 sequence (P33681 35-242 limits assumed): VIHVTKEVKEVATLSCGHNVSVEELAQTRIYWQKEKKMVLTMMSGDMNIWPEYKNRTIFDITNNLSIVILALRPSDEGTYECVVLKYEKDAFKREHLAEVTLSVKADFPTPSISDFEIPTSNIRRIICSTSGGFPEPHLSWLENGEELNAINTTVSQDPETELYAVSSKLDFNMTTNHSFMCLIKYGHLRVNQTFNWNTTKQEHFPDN
Experiment: CD28/B7-1 ELISA (B7-1/CD28 binding inhibition)
Details: CD28-Fc coated wells, B7-1-Fc-biotin/streptavidin-alkaline phosphatase detection complex, 1% DMSO
Method: Evaluation of B7-1/CD28 Binding Inhibition for Test Compounds
Wells are coated with 300 ng CD28-Fc in carbonate buffer (pH 9.4) overnight at 4° C., blocked with 1% bovine serum albumin in tris-buffered saline (TBS) for 1 h at 22° C. and washed 3 times in TBS prior to assay. The detection complex is formed as follows: B7-1-Fc-biotin, prepared using NHS-LC-biotin (Pierce #21335) according to the manufacturers instructions (4.1 moles biotin/mole Fc), is added at 0.8 ug/ml to streptavidin-alkaline phosphatase (Caltag Sa1008 at 1:1000 in TBS. Gradient dilutions of test compound in dimethylsulfoxide (1% final) are added to this complex and incubated 30 min. at 22° C. Detection complex (+/−inhibitors) is then added to the CD28 coated wells for 25 min. at 22° C., washed 5 times with TBS, developed with the calorimetric substrate pNPP (Pierce #34045) in diethanolamine/MgCl2 buffer (pH 9.5) and read at 405 nm. The inhibition constant (IC50) is calculated by subtracting background binding and comparing to uninhibited (DMSO alone) controls. The inhibition constant represents the concentration of test compound required to achieve 50% inhibition.

Row | IC50 | Compound
1 | 1700 nM | Cc1csc(C(=O)O)c1-n1[nH]c2c(c(-c3cccc(C(F)(F)F)c3)nc3c2cnn3C)c1=O [Example 52]
2 | 1200 nM | Cn1ncc2c3[nH]n(-c4nccc(C(F)(F)F)n4)c(=O)c3c(-c3cccc(C(F)(F)F)c3)nc21 [Example 45]
3 | 70 nM | Cn1ncc2c3[nH]n(-c4cccc(F)c4)c(=O)c3c(-c3cccc(C(=O)O)c3)nc21 [Example 60]
4 | 12 nM | COC(=O)c1ccc(-n2[nH]c3c(c(-c4cccc(C(F)(F)F)c4)nc4c3cnn4C)c2=O)cc1F [Example 37]
5 | 120 nM | COC(=O)c1cc(-n2[nH]c3c(c(-c4cccc(C(F)(F)F)c4)nc4c3cnn4C)c2=O)ccc1Cl [Example 26]
6 | 4 nM | Cn1ncc2c3[nH]n(-c4cccc(F)c4)c(=O)c3c(-c3cccc([N+](=O)[O-])c3)nc21 [Example 50]
7 | 780 nM | CCn1ncc2c3[nH]n(-c4ccc(F)cc4)c(=O)c3c(-c3cccc(C(F)(F)F)c3)nc21 [Example 67]
8 | 1000 nM | Cn1ncc2c3[nH]n(-c4ccc(F)cc4F)c(=O)c3c(-c3cccc(C(F)(F)F)c3)nc21 [Example 44]
9 | 1900 nM | Cn1ncc2c3[nH]n(-c4cccc(F)c4)c(=O)c3c(-c3cccc(S(C)(=O)=O)c3)nc21 [Example 55]
10 | 30 nM | Cn1ncc2c3[nH]n(-c4cccc(F)c4)c(=O)c3c(-c3cccc(C#N)c3)nc21 [Example 53]
11 | 9 nM | Cn1ncc2c3[nH]n(-c4ccc(C(=O)O)c(Cl)c4)c(=O)c3c(-c3cccc(Br)c3)nc21 [Example 32]
12 | 400 nM | Cn1ncc2c3[nH]n(-c4ccc(F)cc4)c(=O)c3c(-c3cccc(N)c3)nc21 [Example 47]
13 | 20 nM | Cn1ncc2c3[nH]n(-c4cccc(F)c4)c(=O)c3c(-c3cccc(C(F)(F)F)c3)nc21 [Example 43]
14 | 16 nM | Cn1ncc2c3[nH]n(-c4ccc(C(=O)O)c(Cl)c4)c(=O)c3c(-c3cccc(C(F)(F)F)c3)nc21 [Example 30]
15 | 295 nM | Cn1ncc2c3[nH]n(-c4cccc(F)c4)c(=O)c3c(-c3ccc4c(c3)OCO4)nc21 [Example 76]
16 | 50 nM | Cn1ncc2c3[nH]n(-c4ccc(F)cc4)c(=O)c3c(-c3cccc([N+](=O)[O-])c3)nc21 [Example 46]
17 | 200 nM | Cn1ncc2c3[nH]n(-c4ccc(F)cc4)c(=O)c3c(-c3cncc(Br)c3)nc21 [Example 8]
18 | 70 nM | Cn1ncc2c3[nH]n(-c4ccc(F)c(C(=O)O)c4)c(=O)c3c(-c3cccc(C(F)(F)F)c3)nc21 [Example 36]
19 | 2100 nM | CCOC(=O)c1scc(C)c1-n1[nH]c2c(c(-c3cccc(C(F)(F)F)c3)nc3c2cnn3C)c1=O [Example 51]
20 | 100 nM | Cn1ncc2c3[nH]n(-c4ccc([N+](=O)[O-])cc4)c(=O)c3c(-c3cccc(C(F)(F)F)c3)nc21 [Example 40]

Row | IC50 | Compound
21 | 40 nM | Cn1ncc2c3[nH]n(-c4cccc(F)c4)c(=O)c3c(-c3cc(Cl)cc(Cl)c3)nc21 [Example 73, 4-(3,5-Dichlorophenyl)-2-(3-fluorophenyl)-6-methyl-1,6-dihydrodypyrazolo[3,4-b:3′,4′-d]pyridin-3(2H)-one]
22 | 330 nM | Cn1ncc2c3[nH]n(-c4cccc(F)c4)c(=O)c3c(-c3cccc([S+](C)[O-])c3)nc21 (stereo not shown) [Example 56]
23 | 9 nM | COC(=O)c1ccc(-n2[nH]c3c(c(-c4cccc(Br)c4)nc4c3cnn4C)c2=O)cc1Cl [Example 31]
24 | 1800 nM | Cn1ncc2c3[nH]n(-c4ccc(Cl)cc4)c(=O)c3c(-c3ccccc3)nc21 [Example 6]
25 | 900 nM | Cn1ncc2c3[nH]n(-c4ccc(C(C)(C)C)cc4)c(=O)c3c(-c3cccc(C(F)(F)F)c3)nc21 [Example 42]
26 | 190 nM | Cc1cc(-n2[nH]c3c(c(-c4cccc(Br)c4)nc4c3cnn4C)c2=O)cc(C(F)(F)F)c1 [Example 12]
27 | 800 nM | O=c1c2c(-c3cccc(C(F)(F)F)c3)nc3c(cnn3CCO)c2[nH]n1-c1ccc(F)cc1 [Example 66]
28 | 290 nM | CCOc1ccc(-n2[nH]c3c(c(-c4cccc(C(F)(F)F)c4)nc4c3cnn4C)c2=O)nn1 [Example 23]
29 | 82 nM | COc1cccc(-c2nc3c(cnn3C)c3[nH]n(-c4cccc(F)c4)c(=O)c23)c1 [Example 75]
30 | 70 nM | Cn1ncc2c3[nH]n(-c4ccccn4)c(=O)c3c(-c3cccc(Br)c3)nc21 [Example 13]
31 | 50 nM | Cn1ncc2c3[nH]n(-c4ccc(I)cc4)c(=O)c3c(-c3cccc(C(F)(F)F)c3)nc21 [Example 16]
32 | 750 nM | O=c1c2c(-c3cccc(C(F)(F)F)c3)nc3c(cnn3-c3ccccc3)c2[nH]n1-c1cccc(F)c1 [Example 7]
33 | 8 nM | COC(=O)c1cccc(-n2[nH]c3c(c(-c4cccc(C(F)(F)F)c4)nc4c3cnn4C)c2=O)c1 [Example 22]
34 | 400 nM | Cn1ncc2c3[nH]n(-c4ccccn4)c(=O)c3c(-c3cncc(Br)c3)nc21 [Example 9]
35 | 72 nM | Cn1ncc2c3[nH]n(-c4ccc(=O)[nH]n4)c(=O)c3c(-c3cccc(C(F)(F)F)c3)nc21 [Example 24]
36 | 12 nM | Cn1ncc2c3[nH]n(-c4ccc([N+](=O)[O-])cc4)c(=O)c3c(-c3cccc(Br)c3)nc21 [Example 18]
37 | 190 nM | Cn1ncc2c3[nH]n(-c4ccc(C(=O)O)cc4)c(=O)c3c(-c3cccc(C(F)(F)F)c3)nc21 [Example 33]
38 | 1500 nM | Cn1ncc2c3[nH]n(-c4cccc(F)c4)c(=O)c3c(-c3cccc(C(N)=O)c3)nc21 [Example 54]
39 | 20 nM | Cn1ncc2c3[nH]n(-c4cccc(F)c4)c(=O)c3c(-c3cncc(Br)c3)nc21 [Example 4, 4-(5-Bromo-3-pyridinyl)-2-(3-fluorophenyl)-6-methyl-1,6-dihydrodipyrazalo[3,4-b:3,4-d]pyridin-3(2H)-one]
40 | 58 nM | Cc1cc(C)cc(-n2[nH]c3c(c(-c4cccc(Br)c4)nc4c3cnn4C)c2=O)c1 [Example 17]

Row | IC50 | Compound
41 | 105 nM | Cn1ncc2c3[nH]n(-c4cccc(F)c4)c(=O)c3c(-c3ccsc3)nc21 [Example 74]
42 | 170 nM | CCOC(=O)c1cccc(-n2[nH]c3c(c(-c4cccc(C(F)(F)F)c4)nc4c3cnn4C)c2=O)c1 [Example 28]
43 | 50 nM | Cn1ncc2c3[nH]n(-c4ccc(N)cc4)c(=O)c3c(-c3cccc(C(F)(F)F)c3)nc21 [Example 48]
44 | 20 nM | Cn1ncc2c3[nH]n(-c4cccc(OCc5ccccc5)c4)c(=O)c3c(-c3cccc(C(F)(F)F)c3)nc21 [Example 59]
45 | 31 nM | COC(=O)c1ccc(-n2[nH]c3c(c(-c4cccc(C(F)(F)F)c4)nc4c3cnn4C)c2=O)cc1 [Example 34]
46 | 25 nM | Cn1ncc2c3[nH]n(-c4ccc(OCc5ccccc5)cc4)c(=O)c3c(-c3cccc(C(F)(F)F)c3)nc21 [Example 58]
47 | 210 nM | Cn1ncc2c3[nH]n(-c4ccc(C(=O)O)c(F)c4)c(=O)c3c(-c3cccc(C(F)(F)F)c3)nc21 [Example 38]
48 | 150 nM | Cc1cccc(-c2nc3c(cnn3C)c3[nH]n(-c4ccccn4)c(=O)c23)c1 [Example 10]
49 | 50 nM | O=c1c2c(-c3cccc(C(F)(F)F)c3)nc3[nH]ncc3c2[nH]n1-c1ccc(F)cc1 [Example 65]
50 | 90 nM | CCCn1ncc2c3[nH]n(-c4ccc(F)cc4)c(=O)c3c(-c3cccc(C(F)(F)F)c3)nc21 [Example 68]
51 | 990 nM | Cc1cccc(-c2nc3c(cnn3C)c3[nH]n(-c4cc(C)cc(C)c4)c(=O)c23)c1 [Example 19]
52 | 98 nM | COC(=O)c1cc(-n2[nH]c3c(c(-c4cccc(C(F)(F)F)c4)nc4c3cnn4C)c2=O)ccc1F [Example 35]
53 | 7 nM | Cn1ncc2c3[nH]n(-c4ccc(Cl)c(C(=O)O)c4)c(=O)c3c(-c3cccc(C(F)(F)F)c3)nc21 [Example 25]
54 | 48 nM | Cn1ncc2c3[nH]n(-c4cccc(C(=O)O)c4)c(=O)c3c(-c3cccc(C(F)(F)F)c3)nc21 [Example 21]
55 | 50 nM | Cn1ncc2c3[nH]n(-c4ccc(F)cc4)c(=O)c3c(-c3cccc(C(F)(F)F)c3)nc21 [Example 39]
56 | 188 nM | CC1CN(c2nc3c(cnn3C)c3[nH]n(-c4cccc(F)c4)c(=O)c23)CC(C)O1 (stereo not shown) [Example 81, 4-(2,6-Dimethyl-4-morpholinyl)-2-(3-fluorophenyl)-6-methyl-1,6-dihydrodipyrazolo[3,4-b:3′-4′-d]pyridin-3(2H)-one]
57 | 41 nM | COC(=O)c1ccc(-n2[nH]c3c(c(-c4cccc(C(F)(F)F)c4)nc4c3cnn4C)c2=O)cc1Cl [Example 29]
58 | 66 nM | Cc1cc(C)cc(-n2[nH]c3c(c(-c4cccc(C(F)(F)F)c4)nc4c3cnn4C)c2=O)c1 [Example 20]
59 | 70 nM | O=c1c2c(-c3cccc(C(F)(F)F)c3)nc3c(cnn3Cc3ccccc3)c2[nH]n1-c1ccc(F)cc1 [Example 64]
60 | 400 nM | Cn1ncc2c3[nH]n(-c4ccccc4F)c(=O)c3c(-c3cccc(C(F)(F)F)c3)nc21 [Example 41]

Row | Compound | IC50
61 | Cn1ncc2c3[nH]n(-c4ccc(-c5ccccc5)cc4)c(=O)c3c(-c3cccc(C(F)(F)F)c3)nc21 [Example 57] | 39 nM
